Results published in patent publication US10919885B2, “Compounds and uses thereof” (Yumanity Therapeutics, Inc., priority 2018, dated 2021).

Target: human SCD5 (Homo sapiens (Human), UniProt Q86SK9)
Test: Yeast growth assay, strain expressing human SCD5 as the sole desaturase (reduced growth as surrogate for SCD inhibition)
Type: cell-based
Conditions: yeast with OLE1 deleted expressing human SCD5 from a plasmid; growth read as OD600 after 40 h at 30° C.; top drug concentration 33.3 μM
How it was run: (§1)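 Yeast lacking OLE1 depend on plasmid-borne human SCD1 or SCD5 and are tested in SD-Ura medium without oleic/palmitoleic acid or Tween.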

Sequence of human SCD5 (Q86SK9 whole entry): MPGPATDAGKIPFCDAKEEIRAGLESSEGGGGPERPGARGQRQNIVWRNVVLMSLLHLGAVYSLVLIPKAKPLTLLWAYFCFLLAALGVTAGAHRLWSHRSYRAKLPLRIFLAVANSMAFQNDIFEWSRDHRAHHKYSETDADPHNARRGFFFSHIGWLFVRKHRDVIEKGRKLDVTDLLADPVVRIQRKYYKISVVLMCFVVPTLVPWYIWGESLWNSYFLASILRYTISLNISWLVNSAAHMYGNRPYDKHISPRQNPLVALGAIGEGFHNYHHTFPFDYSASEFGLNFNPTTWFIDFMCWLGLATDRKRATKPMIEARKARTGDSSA

| SMILES | IC50 [µM] |
| --- | --- |
| N#Cc1ccc(-c2cc(C(=O)N3CCC(c4ccccc4)CC3)no2)cc1 [Compound 316, 4-(3-(4-phenylpiperidine-1-carbonyl)isoxazol-5-yl)benzonitrile] | 0.7 |
| N#Cc1cccc(-c2cc(C(=O)N3CCC(c4ccccc4)CC3)no2)c1 [Compound 317] | > 45 |
| O=C(c1cc(-c2ccccn2)on1)N1CCC(c2ccccc2)CC1 [Compound 318] | 14.1 |
| CNC(=O)c1ccc(-c2cc(C(=O)N3CC=C(c4ccccc4)CC3)no2)cc1 [Compound 319] | > 45 |
| COc1ccccc1-c1cc(C(=O)N2CCC(c3ccccc3)CC2)no1 [Compound 320] | > 45 |
| O=C(c1cc(-c2ccccc2)on1)N1CCC(c2cccnc2)CC1 [Compound 322] | > 45 |
| C=C(C)c1cc(C(=O)N2CCC3(CCc4c(F)cccc4O3)CC2)no1 [Compound 324] | 3.8 |
| N#Cc1ccccc1-c1cc(C(=O)N2CCC(c3ccccc3)CC2)no1 [Compound 326, 2-(3-(4-phenylpiperidine-1-carbonyl)isoxazol-5-yl)benzonitrile] | 5.7 |
| O=C(c1cc(-c2ccccc2)on1)N1CCC(c2ccccc2)C1 (centres unmarked) [Compound 330] | 2.6 |
| O=C(c1cc(-c2ccccc2)on1)N1CCC(c2ccc(F)cc2)C1 (centres unmarked) [Compound 334] | > 45 |
| O=C(NC1CCNC1)c1cc(-c2ccco2)on1 (centres unmarked) [Compound 336] | > 45 |
| O=C(NC1CCN(Cc2ccccc2)C1)c1cc(-c2ccco2)on1 (centres unmarked) [Compound 337] | > 45 |
| O=C(c1cc(-c2ccco2)on1)N1CCC(c2ccccc2)C1 (centres unmarked) [Compound 338] | 2.79 |
| O=C(c1cc(-c2ccccc2)on1)N1CCC2(CCNC2)C1 (centres unmarked) [Compound 340] | > 45 |
| CN1CCC2(CCN(C(=O)c3cc(-c4ccccc4)on3)C2)C1 (centres unmarked) [Compound 342] | > 45 |
| CC(C)(C)OC(=O)N1CC2(C1)CN(C(=O)c1cc(-c3ccccc3)on1)C2 [Compound 344] | > 45 |
| O=C(c1cc(-c2ccccc2)on1)N1CC2(CNC2)C1 [Compound 345] | > 45 |
| O=C(c1cc(-c2ccccc2C(F)(F)F)on1)N1CCC(c2ccccc2)C1 (centres unmarked) [Compound 346] | 7.35 |
| CNC(=O)c1cc(C(=O)N2CCC(c3ccccc3)C2)no1 (centres unmarked) [Compound 347] | 5.28 |
| NC(=O)c1cc(C(=O)N2CCC(c3ccccc3)C2)no1 (centres unmarked) [Compound 348] | > 45 |
| CC(C)c1cc(C(=O)N2CCC(c3ccccc3)C2)no1 (centres unmarked) [Compound 349] | > 45 |
| O=C(c1cc(-c2ccccn2)on1)N1CCC(c2cccc(F)c2)C1 (centres unmarked) [Compound 352] | 9 |

The remaining lines, values ahead:

| IC50 [µM] | SMILES |
| --- | --- |
| > 45 | O=C(c1cc(-c2ccc3c(c2)OCO3)on1)N1Cc2ccccc2C1 [Compound 328] |
| > 45 | O=C(c1cc(-c2ccc3c(c2)OCO3)on1)N1CCC(c2ccccc2)C1 (centres unmarked) [Compound 329] |
| 6.18 | O=C(c1cc(-c2ccc3c(c2)OCO3)on1)N1CCCC1c1ccccc1C(F)F (centres unmarked) [Compound 331] |
| > 45 | O=C(c1cc(-c2ccccc2)on1)N1CCC(c2ccccc2F)C1 (centres unmarked) [Compound 335] |
| > 45 | Cc1cc(C2CCCN2C(=O)c2cc(-c3ccc4c(c3)OCO4)on2)on1 (centres unmarked) [Compound 353] |
| > 45 | Cc1cc(C2CCCN2C(=O)c2cc(-c3ccco3)on2)on1 (centres unmarked) [Compound 357] |
| > 45 | O=C(c1cc(-c2ccc3c(c2)OCO3)on1)N1CCCC1c1ccccn1 (centres unmarked) [Compound 361] |
| > 45 | O=C(c1cc(-c2ccc3c(c2)OCO3)on1)N1CCCC1c1cccnc1 (centres unmarked) [Compound 362] |
| > 45 | O=C(c1cc(-c2ccc3c(c2)OCO3)on1)N1CCCC1c1ccncc1 (centres unmarked) [Compound 363] |
| > 45 | O=C(c1cc(-c2ccc3c(c2)OCO3)on1)N1CCCC1c1ccccc1F (centres unmarked) [Compound 366] |
| 4.92 | O=C(c1cc(-c2ccc3c(c2)OCO3)on1)N1CCCC12CC2 [Compound 371] |
| > 45 | COc1ccc(C2CCCN2C(=O)c2cc(-c3ccc(OC)c(OC)c3)on2)cc1 (centres unmarked) [Compound 374] |

Target: human SCD1 (Homo sapiens (Human), UniProt O00767)
Test: Yeast growth assay, strain expressing human SCD1 as the sole desaturase (reduced growth as surrogate for SCD inhibition)
Type: cell-based
Conditions: yeast with OLE1 deleted expressing human SCD1 from a plasmid; growth read as OD600 after 40 h at 30° C.; top drug concentration 33.3 μM
How it was run: as §1

Sequence of human SCD1 (O00767 whole entry): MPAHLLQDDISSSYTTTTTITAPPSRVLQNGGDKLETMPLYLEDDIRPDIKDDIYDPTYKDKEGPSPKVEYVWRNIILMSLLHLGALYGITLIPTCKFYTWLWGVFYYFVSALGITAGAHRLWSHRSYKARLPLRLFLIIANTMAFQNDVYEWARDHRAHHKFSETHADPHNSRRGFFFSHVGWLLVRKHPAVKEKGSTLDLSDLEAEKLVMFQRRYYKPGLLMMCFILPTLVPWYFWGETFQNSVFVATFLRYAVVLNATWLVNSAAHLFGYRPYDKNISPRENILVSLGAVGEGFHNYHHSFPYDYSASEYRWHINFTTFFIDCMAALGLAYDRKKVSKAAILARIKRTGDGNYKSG

| SMILES | IC50 [µM] |
| --- | --- |
| N#Cc1ccc(-c2cc(C(=O)N3CCC(c4ccccc4)CC3)no2)cc1 [Compound 316, 4-(3-(4-phenylpiperidine-1-carbonyl)isoxazol-5-yl)benzonitrile] | > 45 |
| N#Cc1cccc(-c2cc(C(=O)N3CCC(c4ccccc4)CC3)no2)c1 [Compound 317] | > 45 |
| O=C(c1cc(-c2ccccn2)on1)N1CCC(c2ccccc2)CC1 [Compound 318] | > 45 |
| CNC(=O)c1ccc(-c2cc(C(=O)N3CC=C(c4ccccc4)CC3)no2)cc1 [Compound 319] | > 45 |
| COc1ccccc1-c1cc(C(=O)N2CCC(c3ccccc3)CC2)no1 [Compound 320] | > 45 |
| O=C(c1cc(-c2ccccc2)on1)N1CCC(c2cccnc2)CC1 [Compound 322] | > 45 |
| C=C(C)c1cc(C(=O)N2CCC3(CCc4c(F)cccc4O3)CC2)no1 [Compound 324] | > 45 |
| N#Cc1ccccc1-c1cc(C(=O)N2CCC(c3ccccc3)CC2)no1 [Compound 326, 2-(3-(4-phenylpiperidine-1-carbonyl)isoxazol-5-yl)benzonitrile] | > 45 |
| O=C(c1cc(-c2ccccc2)on1)N1CCC(c2ccccc2)C1 (centres unmarked) [Compound 330] | > 45 |
| O=C(c1cc(-c2ccccc2)on1)N1CCC(c2ccc(F)cc2)C1 (centres unmarked) [Compound 334] | > 45 |
| O=C(NC1CCNC1)c1cc(-c2ccco2)on1 (centres unmarked) [Compound 336] | > 45 |
| O=C(NC1CCN(Cc2ccccc2)C1)c1cc(-c2ccco2)on1 (centres unmarked) [Compound 337] | > 45 |
| O=C(c1cc(-c2ccco2)on1)N1CCC(c2ccccc2)C1 (centres unmarked) [Compound 338] | > 45 |
| O=C(c1cc(-c2ccccc2)on1)N1CCC2(CCNC2)C1 (centres unmarked) [Compound 340] | > 45 |
| CN1CCC2(CCN(C(=O)c3cc(-c4ccccc4)on3)C2)C1 (centres unmarked) [Compound 342] | > 45 |
| CC(C)(C)OC(=O)N1CC2(C1)CN(C(=O)c1cc(-c3ccccc3)on1)C2 [Compound 344] | > 45 |
| O=C(c1cc(-c2ccccc2)on1)N1CC2(CNC2)C1 [Compound 345] | > 45 |
| O=C(c1cc(-c2ccccc2C(F)(F)F)on1)N1CCC(c2ccccc2)C1 (centres unmarked) [Compound 346] | > 45 |
| CNC(=O)c1cc(C(=O)N2CCC(c3ccccc3)C2)no1 (centres unmarked) [Compound 347] | 4.19 |
| NC(=O)c1cc(C(=O)N2CCC(c3ccccc3)C2)no1 (centres unmarked) [Compound 348] | 7.61 |
| CC(C)c1cc(C(=O)N2CCC(c3ccccc3)C2)no1 (centres unmarked) [Compound 349] | > 45 |
| O=C(c1cc(-c2ccccn2)on1)N1CCC(c2cccc(F)c2)C1 (centres unmarked) [Compound 352] | > 45 |

The next lines start with the values.

| IC50 [µM] | SMILES |
| --- | --- |
| > 45 | O=C(c1cc(-c2ccc3c(c2)OCO3)on1)N1Cc2ccccc2C1 [Compound 328] |
| > 45 | O=C(c1cc(-c2ccc3c(c2)OCO3)on1)N1CCC(c2ccccc2)C1 (centres unmarked) [Compound 329] |
| > 45 | O=C(c1cc(-c2ccc3c(c2)OCO3)on1)N1CCCC1c1ccccc1C(F)F (centres unmarked) [Compound 331] |
| > 45 | O=C(c1cc(-c2ccccc2)on1)N1CCC(c2ccccc2F)C1 (centres unmarked) [Compound 335] |
| > 45 | Cc1cc(C2CCCN2C(=O)c2cc(-c3ccc4c(c3)OCO4)on2)on1 (centres unmarked) [Compound 353] |
| > 45 | Cc1cc(C2CCCN2C(=O)c2cc(-c3ccco3)on2)on1 (centres unmarked) [Compound 357] |
| > 45 | O=C(c1cc(-c2ccc3c(c2)OCO3)on1)N1CCCC1c1ccccn1 (centres unmarked) [Compound 361] |
| > 45 | O=C(c1cc(-c2ccc3c(c2)OCO3)on1)N1CCCC1c1cccnc1 (centres unmarked) [Compound 362] |
| > 45 | O=C(c1cc(-c2ccc3c(c2)OCO3)on1)N1CCCC1c1ccncc1 (centres unmarked) [Compound 363] |
| > 45 | O=C(c1cc(-c2ccc3c(c2)OCO3)on1)N1CCCC1c1ccccc1F (centres unmarked) [Compound 366] |
| 30.4 | O=C(c1cc(-c2ccc3c(c2)OCO3)on1)N1CCCC12CC2 [Compound 371] |
| 32.2 | COc1ccc(C2CCCN2C(=O)c2cc(-c3ccc(OC)c(OC)c3)on2)cc1 (centres unmarked) [Compound 374] |
